Test results: patent US20100256104A1, “NOVEL AMIDE COMPOUNDS” (ASTRAZENECA R&D, priority 2009, published 2010)

What follows are compounds tested against T1, recombinant human GR (Homo sapiens, UniProt P04150) (assay: Human Glucocorticoid Receptor (GR) Assay, fluorescence polarization competition with GS Red tracer). Details: 2 hours at room temperature, 100% control 10 μM Dexamethasone, XLfit model 205, read-out: Inhibition of GR binding, IC50.
T1 construct: purchased Panvera/Invitrogen P2812 (kit P2893)
T1 sequence (P04150 1-777): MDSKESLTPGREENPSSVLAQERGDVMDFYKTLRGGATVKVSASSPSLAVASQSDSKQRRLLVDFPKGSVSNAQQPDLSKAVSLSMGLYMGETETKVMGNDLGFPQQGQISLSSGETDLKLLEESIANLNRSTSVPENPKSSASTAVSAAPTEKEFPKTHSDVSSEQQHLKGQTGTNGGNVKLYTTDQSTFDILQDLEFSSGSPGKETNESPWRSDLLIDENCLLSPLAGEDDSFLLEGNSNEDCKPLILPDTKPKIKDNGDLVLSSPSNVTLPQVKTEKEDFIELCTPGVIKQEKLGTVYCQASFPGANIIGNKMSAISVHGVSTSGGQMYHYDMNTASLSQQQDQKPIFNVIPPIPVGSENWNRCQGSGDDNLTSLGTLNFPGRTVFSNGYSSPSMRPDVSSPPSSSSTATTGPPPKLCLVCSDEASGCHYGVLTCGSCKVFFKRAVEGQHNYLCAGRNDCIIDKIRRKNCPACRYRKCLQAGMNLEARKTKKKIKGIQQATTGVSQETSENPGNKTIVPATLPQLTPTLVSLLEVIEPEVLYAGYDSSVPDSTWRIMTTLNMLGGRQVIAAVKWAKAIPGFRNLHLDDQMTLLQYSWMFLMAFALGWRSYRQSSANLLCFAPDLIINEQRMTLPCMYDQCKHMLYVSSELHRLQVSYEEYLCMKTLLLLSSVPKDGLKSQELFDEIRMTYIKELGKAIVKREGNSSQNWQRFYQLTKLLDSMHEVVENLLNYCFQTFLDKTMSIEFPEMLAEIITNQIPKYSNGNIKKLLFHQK
Method: Human Glucocorticoid Receptor (GR) Assay The assay is based on a commercial kit from Panvera/Invitrogen (Part number P2893). The assay technology is fluorescence polarization. The kit utilises recombinant human GR (Panvera, Part number P2812), a Fluoromone™ labelled tracer (GS Red, Panvera, Part number P2894) and a Stabilizing Peptide 10X (Panvera, Part number P2815). The GR and Stabilizing Peptide reagents are stored at −70° C. while the GS Red is stored at −20° C. Also included in the kit are 1M DTT (Panvera, Part number P2325, stored at −20° C.) and GR Screening buffer 10X (Panvera, Part number P2814, stored at −70° C. initially but once thawed stored at room temperature). Avoid repeated freeze/thaws for all reagents. The GR Screening buffer 10X comprises 100 mM potassium phosphate, 200 mM sodium molybdate, 1 mM EDTA and 20% DMSO. Test compounds (1 μL) and controls (1 μL) in 100% DMSO were added to black polystyrene 384-well plates (Greiner low volume black flat-bottom, part number 784076). 0% control was 100% DMSO and 100% control was 10 μM Dexamethasone. Background solution (8 μL; assay buffer 10X, Stabilizing Peptide, DTT and ice cold MQ water) was added to the background wells. GS Red solution (7 μL; assay buffer 10X, Stabilizing Peptide, DTT, GS Red and ice cold water) was added to all wells except background wells. GR solution (7 μL; assay buffer 10X, Stabilizing Peptide, DTT, GR and ice cold water) was added to all wells. The plate was sealed and incubated in a dark at room temperature for 2 hours. The plate was read in an Analyst plate reader (LJL Biosystems/Molecular Devices Corporation) or other similar plate reader capable of recording fluorescence polarization (excitation wavelength 530 nm, emission wavelength 590 nm and a dichroic mirror at 561 nm).

Compound | IC50
C[C@]12Cc3cnn(-c4cccc(C(=O)N5CCC[C@@H]5C(N)=O)c4)c3C=C1CC[C@H]1[C@@H]3CC[C@](OC(=O)C4CC4)(C(=O)SCC#N)[C@@]3(C)C[C@H](O)[C@@]12F [Example 54, (1R,3aS,3bS,10aS, 10bR,11S,12aS)-7-(3-{[(2R)-2-carbamoyl-pyrrolidin-1-yl]carbonyl}phenyl)-1-{[(cyanomethyl)sulfanyl]carbonyl}-10b-fluoro-11-hydroxy-10a,12a-dimethyl-1,2,3,3a, 3b,4,5,7,10,10a,- 10b,11,12,12a-tetradeca-hydrocyclo-penta[5,6]naphtho [1,2-f]indazol-1-yl cyclopropanecarboxylate] | 4.2 nM
COCC(=O)O[C@]1(C(=O)SCF)CC[C@H]2[C@@H]3CCC4=Cc5c(cnn5-c5cccc(C(=O)N6CCC[C@@H]6C(N)=O)c5)C[C@]4(C)[C@H]3[C@@H](O)C[C@@]21C [Example 16, (1R,3aS,3bS,10aR,10bS,11S, 12aS)-7-(3-{[(2R)-2-carba-moylpyrrolidin-1-yl]carbonyl}phenyl)-1-{[(fluoromethyl)sulfanyl]carbonyl}-11-hydroxy-10a,12a-dimethyl-1,2,3,3a,3b,4,5,7,10,10a,10b, 11,12,12a-tetradecahydro-cyclopenta[5,6]naphtho[1,2-f] indazol-1-yl methoxyacetate] | 9 nM
COCC(=O)O[C@]1(C(=O)SC)CC[C@H]2[C@@H]3CCC4=Cc5c(cnn5-c5cccc(C(=O)N6CCC[C@@H]6C(N)=O)c5)C[C@]4(C)[C@@]3(F)[C@@H](O)C[C@@]21C [Example 56, (1R,3aS,3bS,10aS,10bR,11S,12aS)-7-(3-{[(2R)-2-carbamoylpyrrolidin-1-yl]carbonyl}phenyl)-10b-fluoro-11-hydroxy-10a,12a-dimethyl-1-[(methylsulfanyl)carbonyl]-1,2,3,3a,3b,4,5,7,10,10a,10b,11,12,12a-tetradecahydrocyclopenta[5,6]naphtho[1,2-f]indazol-1-yl methoxyacetate] | 8.6 nM
COCCNC(=O)c1cccc(-n2ncc3c2C=C2CC[C@@H]4[C@H]([C@@H](O)C[C@@]5(C)[C@H]4CC[C@]5(OC(=O)COC)C(=O)SCF)[C@@]2(C)C3)c1 [Example 3, (1R,3aS,3bS,10aR,10bS,11S,12aS)-1-{[(Fluoromethyl)sulfanyl]carbonyl}-11-hydroxy-7-{3-[(2-methoxyethyl)carbamoyl]phenyl}-10a,12a-dimethyl-1,2,3,3a,3b,4,5,7,10,10a,10b,11,12,12a-tetradecahydrocyclopenta[5,6]naphtho[1,2-f]indazol-1-yl methoxyacetate] | 1.6 nM
CCC(=O)O[C@]1(C(=O)SCF)CC[C@H]2[C@@H]3CCC4=Cc5c(cnn5-c5cccc(C(=O)N6CCC[C@@H]6C(N)=O)c5)C[C@]4(C)[C@@]3(F)[C@@H](O)C[C@@]21C [Example 61, (1R,3aS,3bS,10aS, 10bR,11S,12aS)-7-(3-{[(2R)-2-carbamoyl-pyrrolidin-1-yl]carbonyl}phenyl)-10b-fluoro-1-{[(fluoromethyl)sulfanyl]carbonyl}-11-hydroxy-10a,12a-dimethyl-1,2,3,3a,3b,4,5,7,10, 10a,10b,11,12,12a-tetradecahydrocyclo-penta[5,6]naphtho [1,2-f]indazol-1-yl propanoate] | 3.6 nM
COCC(=O)O[C@]1(C(=O)SCC#N)CC[C@H]2[C@@H]3CCC4=Cc5c(cnn5-c5cccc(C(=O)NCc6cccnc6)c5)C[C@]4(C)[C@H]3[C@@H](O)C[C@@]21C [Example 52, (1R,3aS,3bS,10aR, 10bS,11S,12aS)-1-{[(cyanomethyl)sulfanyl]carbonyl}-11-hydroxy-10a,12a-dimethyl-7-{3-[(pyridin-3-ylmethyl)carbamoyl]phenyl}-1,2,3,3a,3b,4,5,7,10, 10a,10b,11,12,12a-tetradecahydrocyclo-penta[5,6]naphtho [1,2-f]indazol-1-yl methoxyacetate] | 1.5 nM
CCC(=O)O[C@]1(C(=O)SCF)CC[C@H]2[C@@H]3C[C@H](C)C4=Cc5c(cnn5-c5cccc(C(=O)N[C@@H](C)C(N)=O)c5)C[C@]4(C)[C@H]3[C@@H](O)C[C@@]21C [Example 23, (1R,3aS,3bS,5S, 10aR,10bS,11S,12aS)-7-(3-{[(1S)-2-amino-1-methyl-2-oxoethyl]carbamoyl}phenyl)-1-{[(fluoromethyl)sulfanyl]carbonyl}-11-hydroxy-5,10a,12a-trimethyl-1,2,3,3a,3b,4,5,7,10, 10a,10b,11,12,12a-tetradecahydrocyclo-penta[5,6]naphtho [1,2-f]indazol-1-yl propanoate] | 4 nM
CCC(=O)O[C@]1(C(=O)SC)CC[C@H]2[C@@H]3CCC4=Cc5c(cnn5-c5cccc(C(=O)N6CCC[C@@H]6C(N)=O)c5)C[C@]4(C)[C@@]3(F)[C@@H](O)C[C@@]21C [Example 59, (1R,3aS,3bS,10aS, 10bR,11S,12aS)-7-(3-{[(2R)-2-carbamoyl-pyrrolidin-1-yl]carbonyl}phenyl)-10b-fluoro-11-hydroxy-10a,12a-dimethyl-1-[(methylsulfanyl)carbonyl]-1,2,3,3a,3b,4,5,7,10, 10a,10b,11,12,12a-tetradecahydrocyclo-penta[5,6]naphtho [1,2-f]indazol-1-yl propanoate] | 3.3 nM
C[C@]12Cc3cnn(-c4cccc(C(=O)N5CCC[C@@H]5C(N)=O)c4)c3C=C1CC[C@@H]1[C@@H]2[C@@H](O)C[C@@]2(C)[C@H]1CC[C@]2(OC(=O)c1cocn1)C(=O)SCF [Example 50, (1R,3aS,3bS,10aR, 10bS,11S,12aS)-7-(3-{[(2R)-2-carbamoyl-pyrrolidin-1-yl]carbonyl}phenyl)-1-{[(fluoromethyl)sulfanyl]carbonyl}-11-hydroxy-10a,12a-dimethyl-1,2,3,3a,3b,4,5,7,10, 10a,10b,11,12,12a-tetradecahydrocyclo-penta[5,6]naphtho [1,2-f]indazol-1-yl 1,3-oxazole-4-carboxylate] | 8.2 nM
CCNC(=O)c1cccc(-n2ncc3c2C=C2CC[C@H]4[C@@H]5C[C@@H](C)[C@](OC(=O)COC)(C(=O)SCF)[C@@]5(C)C[C@H](O)[C@]4(F)[C@@]2(C)C3)c1 [Example 27, (1R,2R,3aS,3bS, 10aS,10bR,11S,12aS)-7-[3-(ethylcarbamoyl)phenyl]-10b-fluoro-1-{[(fluoro-methyl)sulfanyl]-carbonyl}-11-hydroxy-2,10a,12a-trimethyl-1,2,3,3a, 3b,4,5,7,10,10a,- 10b,11,12,12a-tetradecahydrocyclo-penta[5,6]naphtho [1,2-f]indazol-1-yl methoxyacetate] | 0.47 nM
CSC(=O)[C@@]1(OC(=O)C2CC2)CC[C@H]2[C@@H]3CCC4=Cc5c(cnn5-c5cccc(C(=O)N6CCC[C@@H]6C(N)=O)c5)C[C@]4(C)[C@@]3(F)[C@@H](O)C[C@@]21C [Example 53, (1R,3aS,3bS,10aS,10bR,11S,12aS)-7-(3-{[(2R)-2-carbamoylpyrrolidin-1-yl]carbonyl}phenyl)-10b-fluoro-11-hydroxy-10a,12a-dimethyl-1-[(methylsulfanyl)carbonyl]-1,2,3,3a,3b,4,5,7,10,10a,10b,11,12,12a-tetradecahydrocyclopenta[5,6]naphtho[1,2-f]indazol-1-yl cyclopropanecarboxylate] | 2.5 nM
CCC(=O)O[C@]1(C(=O)SCF)CC[C@H]2[C@@H]3CCC4=Cc5c(cnn5-c5cccc(C(=O)N6CCC[C@@H]6C(N)=O)c5)C[C@]4(C)[C@H]3[C@@H](O)C[C@@]21C [Example 13, (1R,3aS,3bS,10aR,10bS,11S,12aS)-7-(3-{[(2R)-2-Carbamoylpyrrolidin-1-yl]carbonyl}phenyl)-1-{[(fluoromethyl)sulfanyl]carbonyl}-11-hydroxy-10a,12a-dimethyl-1,2,3,3a,3b,4,5,7,10,10a,10b,11,12,12a-tetradecahydrocyclopenta[5,6]naphtho[1,2-f]indazol-1-yl propanoate] | 2.5 nM
